Experimental data from patent publication US20080076711A1, “Therapeutic agents for osteopenia” (Chugai Seiyaku Kabushiki Kaisha, priority 2001, published 2008).

What was measured:
[1] = test system: wild-type strain 129 female mice; experiment: BFR and MAR in cancellous bone (distal end of femur) after PTH treatment, wild-type mice; assay type: in vivo, mouse; conditions: WT mice
Experimental: BFR denotes bone formation rate per unit trabecular area (μm^3/μm^2/day). MAR denotes the rate of increase in the distance between labeled calcified bands (μm/day). In the case of cancellous bone, decalcified sagittal sections were prepared from the metaphyseal region and analyzed for BFR and MAR in a 1.4 mm^2 square area located 0.2 mm apart from the growth plate of the distal end of femur. Labeling was accomplished by subcutaneous administration of xylenol orange (100 mg/kg of body weight) 4 days before and calcein 2 days before sampling. Recombinant human PTH(1-34) (Bachem, Torrance, Calif.) was dissolved in acidified physiological saline supplemented with 0.1% bovine serum albumin (Sigma Chemical Co.-Aldrich, St. Louis, Mo.). The OPN-KO mice were subcutaneously administered with 80 μg/kg of body weight human PTH(1-34) for 4 weeks on a five-days-a-week basis. Mice in the control group were administered with physiological saline alone. The effect of PTH on bone metabolism was also examined in the same manner as shown in Example 1, using wild-type strain 129 female mice (7 weeks of age). These mice were divided into groups of 6 mice each.

[2] = test system: postmenopausal patients with osteoporosis; conditions: 100 μg/day once-daily subcutaneous injections for 6 months; cited from earlier work
[3] = test system: wild-type strain 129 female mice; experiment: Analysis of urinary deoxypyridinoline (Dpyr) after PTH treatment, wild-type mice; assay type: in vivo, mouse; conditions: WT mice
Experimental: At 26 days after treatment with PTH, a 24-hour urine sample was collected from each mouse (10 samples per group). As a marker of bone metabolism, the level of urinary deoxypyridinoline (Dpyr) was measured for each sample using an ELISA kit (Metra Biosystems, San Diego, Calif.) in accordance with the manufacturer's protocol. Recombinant human PTH(1-34) (Bachem, Torrance, Calif.) was dissolved in acidified physiological saline supplemented with 0.1% bovine serum albumin (Sigma Chemical Co.-Aldrich, St. Louis, Mo.). The OPN-KO mice were subcutaneously administered with 80 μg/kg of body weight human PTH(1-34) for 4 weeks on a five-days-a-week basis. Mice in the control group were administered with physiological saline alone. The effect of PTH on bone metabolism was also examined in the same manner as shown in Example 1, using wild-type strain 129 female mice (7 weeks of age). These mice were divided into groups of 6 mice each.

[4] = test system: wild-type strain 129 female mice; experiment: Determination of cortical bone thickness and area after PTH treatment, wild-type mice; assay type: in vivo, mouse; conditions: WT mice, PTH(+) group, 80 μg/kg s.c., 4 weeks
Experimental: Horizontal sections were prepared from the femoral mid-diaphysis and tomographed using an X-ray microtomograph Musashi (Nittetsu-ELEX, Osaka, Japan). A Luzex-F automated image analysis system (Nireco, Tokyo, Japan) was then used for analysis of the image data to determine the thickness and area of cortical bone. The thickness was evaluated at the mean value averaged over 8 measurements every 45°. Recombinant human PTH(1-34) (Bachem, Torrance, Calif.) was dissolved in acidified physiological saline supplemented with 0.1% bovine serum albumin (Sigma Chemical Co.-Aldrich, St. Louis, Mo.). The OPN-KO mice were subcutaneously administered with 80 μg/kg of body weight human PTH(1-34) for 4 weeks on a five-days-a-week basis. Mice in the control group were administered with physiological saline alone. The effect of PTH on bone metabolism was also examined in the same manner as shown in Example 1, using wild-type strain 129 female mice (7 weeks of age). These mice were divided into groups of 6 mice each.

osteoporosis patients = conditions: 21 patients, once-daily subcutaneous injections for 6 to 24 months; cited from earlier work
[5] = test system: OPN knockout (OPN-KO) mice; experiment: BFR and MAR in cortical bone (femoral mid-diaphysis) after PTH treatment, OPN-KO mice; assay type: in vivo, mouse
Experimental: In the case of cortical bone, decalcified horizontal sections (serial sections of 3 μm thickness) were prepared from the femoral mid-diaphysis and analyzed for BFR and MAR in the periosteal and endosteal regions. More specifically, a calcium chelator calcein (4 mg/kg of body weight) was subcutaneously administered 9 days and 2 days before sampling and the interval between two labeled bands was determined under a fluorescence microscope to calculate BFR and MAR.
BFR denotes bone formation rate per unit trabecular area (μm^3/μm^2/day).
MAR denotes the rate of increase in the distance between labeled calcified bands (μm/day).
To create an animal model in which the in vivo effects of OPN were inhibited, strain 129 female mice at 7 weeks of age were modified into knockout mice deficient in the OPN gene (OPN-KO mice), as described in Rittling et al. J. Bone Miner. Res., 13: 1101-1111, 1998. These mice were singly used for PTH treatment test. They were divided into groups of 6 mice each.
Recombinant human PTH(1-34) (Bachem, Torrance, Calif.) was dissolved in acidified physiological saline supplemented with 0.1% bovine serum albumin (Sigma Chemical Co.-Aldrich, St. Louis, Mo.). The OPN-KO mice were subcutaneously administered with 80 μg/kg of body weight human PTH(1-34) for 4 weeks on a five-days-a-week basis. Mice in the control group were administered with physiological saline alone.

[6] = test system: wild-type strain 129 female mice; experiment: BFR and MAR in cortical bone (femoral mid-diaphysis) after PTH treatment, wild-type mice; assay type: in vivo, mouse; conditions: WT mice
Experimental: In the case of cortical bone, decalcified horizontal sections (serial sections of 3 μm thickness) were prepared from the femoral mid-diaphysis and analyzed for BFR and MAR in the periosteal and endosteal regions. More specifically, a calcium chelator calcein (4 mg/kg of body weight) was subcutaneously administered 9 days and 2 days before sampling and the interval between two labeled bands was determined under a fluorescence microscope to calculate BFR and MAR. BFR denotes bone formation rate per unit trabecular area (μm^3/μm^2/day). MAR denotes the rate of increase in the distance between labeled calcified bands (μm/day). Recombinant human PTH(1-34) (Bachem, Torrance, Calif.) was dissolved in acidified physiological saline supplemented with 0.1% bovine serum albumin (Sigma Chemical Co.-Aldrich, St. Louis, Mo.). The OPN-KO mice were subcutaneously administered with 80 μg/kg of body weight human PTH(1-34) for 4 weeks on a five-days-a-week basis. Mice in the control group were administered with physiological saline alone. The effect of PTH on bone metabolism was also examined in the same manner as shown in Example 1, using wild-type strain 129 female mice (7 weeks of age). These mice were divided into groups of 6 mice each.

[7] = PTH(+) group, 80 μg/kg s.c., 4 weeks
[8] = PTH(+) vs PTH(−) group, significant inhibition of bone formation (p<0.05)

human PTH(1-34)
BFR in cancellous bone [1, 7]: 1.85±0.08 μm^3/μm^2/day
MAR in cancellous bone [1, 7]: 4.84±0.21 μm/day
fold increase in cancellous BFR by PTH treatment ([1]; PTH(+) vs PTH(−) group, p<0.05): about 1.4 fold
fold increase in cancellous MAR by PTH treatment ([1]; PTH(+) vs PTH(−) group, p<0.05): ~1.3 fold
calcium balance [2]: restored normal calcium balance
cancellous bone mass [2]: increased cancellous bone mass
urinary Dpyr level ([3]; PTH(+) group, 24-hour urine at 26 days): 34.86±6.90 nM/mM Cr
fold increase in systemic bone resorption (urinary Dpyr) by PTH treatment ([3]; PTH(+) vs PTH(−) group, p<0.05): ~1.2 fold
area of cortical bone [4]: 0.69±0.03 mm^2
thickness of cortical bone [4]: 0.20±0.01 mm
calcium balance (osteoporosis patients): no improvement in calcium balance
cancellous bone mass (osteoporosis patients): increased cancellous bone mass
cortical bone mass (osteoporosis patients): reduced cortical bone mass
endosteal BFR, cortical bone [5, 7]: 0.62±0.09 μm^3/μm^2/day
endosteal MAR, cortical bone [5, 7]: 1.33±0.28 μm/day
periosteal BFR (bone formation rate), cortical bone [5, 7]: 2.38±0.18 μm^3/μm^2/day
periosteal MAR (mineral apposition rate), cortical bone [5, 7]: 2.97±0.25 μm/day
effect of PTH treatment on endosteal BFR and MAR ([5]; PTH(+) vs PTH(−) group): little effect
fold increase in periosteal BFR by PTH treatment ([5]; PTH(+) vs PTH(−) group, p<0.05): ~1.8 fold
fold increase in periosteal MAR by PTH treatment ([5]; PTH(+) vs PTH(−) group, p<0.05): ~1.2 fold
endosteal BFR, cortical bone [6, 7]: 1.37±0.18 μm^3/μm^2/day
endosteal MAR, cortical bone [6, 7]: 2.44±0.29 μm/day
periosteal BFR, cortical bone [6, 7]: 1.07±0.08 μm^3/μ^2/day
periosteal MAR, cortical bone [6, 7]: 2.05±0.21 μm/day
fold increase in endosteal BFR by PTH treatment ([6]; PTH(+) vs PTH(−) group, p<0.05): about 1.8 fold
fold increase in endosteal MAR by PTH treatment ([6]; PTH(+) vs PTH(−) group, p<0.05): ~1.5 fold
fold increase in periosteal BFR by PTH treatment [6, 8]: ~0.6 fold
fold increase in periosteal MAR by PTH treatment [6, 8]: ~0.7 fold
